Test results published in patent US5034402A, “Methods and pharmaceutical compositions using pyrrolidine derivatives” (Hoffmann-La Roche Inc., priority 1981, dated 1991).

Assays:
[1] = acute toxicity, single oral administration to mice; settings: mouse, in vivo
Text: Moreover, the Table contains data concerning the acute toxicity (LD50 in mg/kg in the case of single oral administration to mice).

[2] = tested on: short-time memory; experiment: passive avoidance response in the Skinner box; reversal of scopolamine-induced blocking of short-time memory; type: in vivo, rats
Text: The test apparatus is a "Skinner box" with an electrifiable grid floor (30×40 cm) and a grey plastic platform (15×15×0.8 cm) in the front right corner. Untrained male rats (100-120 g) are placed individually on the platform. As soon as they climb down on to the grid floor they receive an electric foot-shock (0.8 mA). The normal reaction of untrained rats is thereupon to jump back on to the platform. Since, however, the rats still attempt to climb down again, the foot-shock procedure must be repeated three to five times for each animal. After these three to five repetitions per animal, the rats have learned a so-called "passive avoidance response", that is, they no longer attempt to descend to the grid floor, since they know that they are punished when they do so.
Immediately thereafter three groups each comprising 30 animals are set up. The first group receives an injection (i.p.) of 0.3 mg/kg of scopolamine as well as distilled water (2 ml/kg, p.o.). The second group receives an injection (i.p.) of 0.3 mg/kg of scopolamine and an oral dosage of the test substance. The third group receives only distilled water (p.o).
Two (2) hours later each rat is placed once on the platform in the "Skinner box". […] The statistical significance of the difference between the results obtained in the first and in the second groups is determined by means of the Chi-Square Test. […]

NC(=O)CN1CC[C@H](O)C1=O [Compound B, (S)-(-)-2-(3-hydroxy-2-oxo-1-pyrrolidinyl)acetamide]
LD50 [1]: > 5000 mg/kg

NC(=O)CN1CC[C@@H](O)C1=O [Compound C, (R)-(+)-2-(3-hydroxy-2-oxo-1-pyrrolidinyl)acetamide]
LD50 [1]: > 5000 mg/kg

C[C@@H]1CCC[C@H](C)N1CCNC(=O)CN1CCC(O)C1=O (mixture of isomers) [Compound A, (R/S)-cis-N-[2-(2,6-dimethyl-1-piperidinyl)ethyl]-2-(3-hydroxy-2-oxo-1-pyrrolidinyl)acetamide]
LD50 [1]: > 5000 mg/kg

CC(C)N(CCNC(=O)CN1CCC(O)C1=O)C(C)C (racemic) [Compound E, (R/S)-N-[2-(diisopropylamino)ethyl]-2-(3-hydroxy-2-oxo-1-pyrrolidinyl)-acetamide]
Significant active dosage ([2]; oral dosage significantly active against scopolamine (0.3 mg/kg i.p.), assessed 2 hours later, Chi-Square Test, each listed dosage was active): 3 mg/kg p.o.
LD50 [1]: > 5000 mg/kg

NC(=O)CN1CCC(O)C1=O (racemic) [Compound D, (R/S)-2-(3-hydroxy-2-oxo-1-pyrrolidinyl)acetamide]
LD50 [1]: > 5000 mg/kg

CN1[C@@H]2C[C@@H](OC(=O)[C@H](CO)c3ccccc3)C[C@H]1[C@@H]1O[C@@H]12 [scopolamine, reference compound]
animals with retrograde effect on the short-time memory ([2]; scopolamine 0.3 mg/kg i.p. and distilled water p.o., during 3-4 hours): 85-92%
